In ChEMBL document CHEMBL1133310, “Naphthalene carboxamides as inhibitors of human cytomegalovirus DNA polymerase” (Bioorg Med Chem Lett, 2000):

tested on: HFF; experiment: Antiviral activity in a cell-based plaque reduction assay, using an HFF cell line and the Davis strain of HCMV; assay type: functional; conditions: Homo sapiens

SMILES	IC50 [µM]
O=C(NCc1ccc(Cl)cc1)c1cc2cccc(O)c2cc1O	0.6
COc1ccc2cc(O)c(C(=O)NCc3ccc([N+](=O)[O-])cc3)cc2c1	3.7
O=C(NCc1ccc(Cl)cc1)c1cc2cc(O)ccc2cc1O	1
O=C(NCc1ccc(Cl)cc1)c1ccc2ccccc2c1O	> 20
COc1ccc2cc(O)c(C(=O)Nc3nc4c(Cl)cccc4s3)cc2c1	> 5
O=C(NCCc1ccc(Cl)cc1)c1cc2ccccc2cc1O	> 20
O=C(NCc1ccc([N+](=O)[O-])cc1)c1cc2cccc(O)c2cc1O	1.5
Nc1nc2c(ncn2COC(CO)CO)c(=O)[nH]1 [GANCICLOVIR]	0.6

molecular target: T1, DNA polymerase alpha catalytic subunit (Homo sapiens, UniProt P09884); experiment: Compound was evaluated for the inhibitory activity against Human alpha polymerase; conditions: not given
T1 sequence (P09884 whole entry): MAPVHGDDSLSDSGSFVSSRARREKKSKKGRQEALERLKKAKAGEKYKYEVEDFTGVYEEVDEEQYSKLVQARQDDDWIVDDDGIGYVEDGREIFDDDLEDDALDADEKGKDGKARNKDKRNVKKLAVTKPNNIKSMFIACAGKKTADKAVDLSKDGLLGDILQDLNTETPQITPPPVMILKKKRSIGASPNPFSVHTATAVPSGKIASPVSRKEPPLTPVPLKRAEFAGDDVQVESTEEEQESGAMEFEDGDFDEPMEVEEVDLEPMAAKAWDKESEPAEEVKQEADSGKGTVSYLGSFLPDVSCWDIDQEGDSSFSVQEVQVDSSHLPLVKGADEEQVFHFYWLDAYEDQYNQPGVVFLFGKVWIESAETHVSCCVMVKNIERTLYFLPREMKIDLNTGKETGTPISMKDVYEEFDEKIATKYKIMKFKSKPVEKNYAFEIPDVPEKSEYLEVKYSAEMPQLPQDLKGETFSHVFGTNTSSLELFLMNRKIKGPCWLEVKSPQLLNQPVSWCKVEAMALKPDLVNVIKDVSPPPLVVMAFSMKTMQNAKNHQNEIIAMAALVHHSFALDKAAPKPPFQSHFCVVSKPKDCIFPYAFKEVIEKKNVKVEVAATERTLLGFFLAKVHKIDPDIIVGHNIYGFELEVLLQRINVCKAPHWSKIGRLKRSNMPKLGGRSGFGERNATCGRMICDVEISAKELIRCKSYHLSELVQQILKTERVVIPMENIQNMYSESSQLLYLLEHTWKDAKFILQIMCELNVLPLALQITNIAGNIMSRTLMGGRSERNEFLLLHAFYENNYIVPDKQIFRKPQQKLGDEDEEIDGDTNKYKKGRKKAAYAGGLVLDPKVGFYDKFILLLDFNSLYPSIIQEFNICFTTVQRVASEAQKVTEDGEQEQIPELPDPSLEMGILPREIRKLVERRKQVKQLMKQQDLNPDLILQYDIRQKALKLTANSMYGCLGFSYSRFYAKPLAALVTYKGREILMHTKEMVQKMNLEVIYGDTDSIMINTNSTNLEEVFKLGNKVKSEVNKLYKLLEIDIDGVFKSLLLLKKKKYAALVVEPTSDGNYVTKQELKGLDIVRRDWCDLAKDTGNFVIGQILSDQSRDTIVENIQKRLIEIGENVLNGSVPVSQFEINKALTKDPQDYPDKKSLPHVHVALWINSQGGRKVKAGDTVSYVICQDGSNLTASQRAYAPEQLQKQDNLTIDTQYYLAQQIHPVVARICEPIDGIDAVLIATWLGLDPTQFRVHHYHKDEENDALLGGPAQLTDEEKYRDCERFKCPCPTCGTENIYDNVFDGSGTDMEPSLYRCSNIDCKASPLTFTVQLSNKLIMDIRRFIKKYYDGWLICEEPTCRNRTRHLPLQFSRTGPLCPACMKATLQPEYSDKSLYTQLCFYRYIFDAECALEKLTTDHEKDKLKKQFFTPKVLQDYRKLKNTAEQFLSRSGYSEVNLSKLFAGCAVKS

IC50 [µM]	SMILES
32	O=C(Nc1cccc([N+](=O)[O-])c1)c1cc2ccccc2cc1O
